Laboratory results reported in patent publication EP3072956A1, “Selective culture medium for polymyxin-resistant, gram-negative bacteria” (priority 2015, dated 2016).

Tests used:
Assay in all cases: MIC determination by broth microdilution (MHB-CA, CLSI)
Type in all cases: cell-based
[1] = system: M. morganii; details: strain Mmor
Protocol: (§1) Determination of MIC values were performed by broth microdilution in Cation-Adjusted Mueller-Hinton broth (MHB-CA) according to the CLSI guidelines (Clinical and Laboratory Standards Institute). Polymyxin B and colistin (Sigma-Aldrich, Saint-Louis) were tested with or without Tween 80 over a range dilution from 0.12 to 128 µg/ml. The surfactant Tween 80, at a final concentration of 0.002%, prevents the binding of polymyxins to multi-array plastic panel. Actually, the use of Tween for determination of MIC of polymyxins is still debatable. MHB-CA broth and 5.10^5 CFU/ml of each tested strain were distributed in each well. Following the EUCAST breakpoints, strains were characterized as susceptible or resistant to polymyxins.

[2] = system: A. baumannii
Protocol: as §1

[3] = system: E. aerogenes; details: strain 36F8
Protocol: as §1

[4] = system: P. stuartii; details: strain Pstu
Protocol: as §1

[5] = system: P. mirabilis; details: strain Pmir
Protocol: as §1

[6] = system: P. aeruginosa
Protocol: as §1

[7] = system: S. maltophilia
Protocol: as §1

[8] = system: K. pneumoniae
Protocol: as §1

[9] = system: H. alvei; details: strain ER
Protocol: as §1

[10] = system: E. cloacae
Protocol: as §1

[11] = system: K. oxytoca; details: strain C24
Protocol: as §1

[12] = system: C. freundii
Protocol: as §1

[13] = system: S. marcescens; details: strain Smar
Protocol: as §1

[14] = system: B. cepacia; details: strain Bcep
Protocol: as §1

Work on colistin yielded an MIC ([1]; With Tween80) greater than 128 µg/mL, an MIC ([1]; Without Tween80) greater than 128 µg/mL and an MIC ([2]; strain 38B9, With Tween80) of 0.25 µg/mL. For the same substance, the MIC ([2]; strain 38B9, Without Tween80) was 0.5 µg/mL, the MIC ([2]; strain Aba6, With Tween80) was 128 µg/mL and the MIC ([2]; strain Aba6, Without Tween80) was 128 µg/mL. For the same substance, the MIC ([2]; strain C105, With Tween80) was 0.12 µg/mL, the MIC ([2]; strain C105, Without Tween80) was 0.5 µg/mL and the MIC ([3]; With Tween80) was 0.12 µg/mL. It also gave an MIC ([3]; Without Tween80) of 0.12 µg/mL, an MIC ([4]; With Tween80) greater than 128 µg/mL and an MIC ([4]; Without Tween80) greater than 128 µg/mL. It also gave an MIC ([5]; With Tween80) greater than 128 µg/mL, an MIC ([5]; Without Tween80) greater than 128 µg/mL and an MIC ([6]; strain 38J8, With Tween80) of 0.5 µg/mL. It also gave an MIC ([6]; strain 38J8, Without Tween80) of 2 µg/mL, an MIC ([6]; strain ATCC 27853, With Tween80) of 0.12 µg/mL and an MIC ([6]; strain ATCC 27853, Without Tween80) of 0.5 µg/mL. It also gave an MIC ([6]; strain C111, With Tween80) of 0.12 µg/mL, an MIC ([6]; strain C111, Without Tween80) of 1 µg/mL and an MIC ([6]; strain C131, With Tween80) of 0.25 µg/mL. The MIC ([6]; strain C131, Without Tween80) was 1 µg/mL, the MIC ([6]; strain C133, With Tween80) was 0.5 µg/mL and the MIC ([6]; strain C133, Without Tween80) was 2 µg/mL. It also gave an MIC ([7]; strain Sm2, With Tween80) greater than 128 µg/mL, an MIC ([7]; strain Sm2, Without Tween80) greater than 128 µg/mL and an MIC ([7]; strain SmA51, With Tween80) of 16 µg/mL. For the same substance, the MIC ([7]; strain SmA51, Without Tween80) was 32 µg/mL, the MIC ([8]; strain 12E2, With Tween80) was 64 µg/mL and the MIC ([8]; strain 12E2, Without Tween80) was 64 µg/mL. The MIC ([8]; strain 13G2, With Tween80) was 32 µg/mL, the MIC ([8]; strain 13G2, Without Tween80) was 64 µg/mL and the MIC ([8]; strain 18J1, With Tween80) was 32 µg/mL. It also gave an MIC ([8]; strain 18J1, Without Tween80) of 32 µg/mL, an MIC ([8]; strain 36A4, With Tween80) of 0.12 µg/mL and an MIC ([8]; strain 36A4, Without Tween80) of 0.12 µg/mL. The MIC ([8]; strain 36A5, With Tween80) was 0.12 µg/mL, the MIC ([8]; strain 36A5, Without Tween80) was 0.12 µg/mL and the MIC ([8]; strain 36A7, With Tween80) was 0.12 µg/mL. It also gave an MIC ([8]; strain 36A7, Without Tween80) of 0.25 µg/mL, an MIC ([8]; strain 38B7, With Tween80) of 0.12 µg/mL and an MIC ([8]; strain 38B7, Without Tween80) of 0.5 µg/mL. It also gave an MIC ([8]; strain 75b, With Tween80) of 128 µg/mL, an MIC ([8]; strain 75b, Without Tween80) of 128 µg/mL and an MIC ([8]; strain 1118, With Tween80) of 64 µg/mL. The MIC ([8]; strain 1118, Without Tween80) was 64 µg/mL, the MIC ([8]; strain 1515, With Tween80) was 32 µg/mL and the MIC ([8]; strain 1515, Without Tween80) was 64 µg/mL. The MIC ([8]; strain AF1b, With Tween80) was 16 µg/mL, the MIC ([8]; strain AF1b, Without Tween80) was 16 µg/mL and the MIC ([8]; strain BICb, With Tween80) was greater than 128 µg/mL. For the same substance, the MIC ([8]; strain BICb, Without Tween80) was greater than 128 µg/mL, the MIC ([8]; strain C1, With Tween80) was 128 µg/mL and the MIC ([8]; strain C1, Without Tween80) was 128 µg/mL. For the same substance, the MIC ([8]; strain C3, With Tween80) was 32 µg/mL, the MIC ([8]; strain C3, Without Tween80) was 32 µg/mL and the MIC ([8]; strain C7, With Tween80) was greater than 128 µg/mL. It also gave an MIC ([8]; strain C7, Without Tween80) greater than 128 µg/mL, an MIC ([8]; strain C11, With Tween80) of 128 µg/mL and an MIC ([8]; strain C11, Without Tween80) of 64 µg/mL. The MIC ([8]; strain C12, With Tween80) was 64 µg/mL, the MIC ([8]; strain C12, Without Tween80) was 64 µg/mL and the MIC ([8]; strain C16, With Tween80) was 64 µg/mL. It also gave an MIC ([8]; strain C16, Without Tween80) of 64 µg/mL, an MIC ([8]; strain C21, With Tween80) of 128 µg/mL and an MIC ([8]; strain C21, Without Tween80) of 128 µg/mL. It also gave an MIC ([8]; strain C22, With Tween80) of 64 µg/mL, an MIC ([8]; strain C22, Without Tween80) of 32 µg/mL and an MIC ([8]; strain C25, With Tween80) of 32 µg/mL. For the same substance, the MIC ([8]; strain C25, Without Tween80) was 64 µg/mL, the MIC ([8]; strain C26, With Tween80) was 128 µg/mL and the MIC ([8]; strain C26, Without Tween80) was 128 µg/mL. For the same substance, the MIC ([8]; strain C27, With Tween80) was greater than 128 µg/mL, the MIC ([8]; strain C27, Without Tween80) was greater than 128 µg/mL and the MIC ([8]; strain C112, With Tween80) was 0.12 µg/mL. For the same substance, the MIC ([8]; strain C112, Without Tween80) was 0.5 µg/mL, the MIC ([8]; strain C115, With Tween80) was 0.12 µg/mL and the MIC ([8]; strain C115, Without Tween80) was 0.12 µg/mL. It also gave an MIC ([8]; strain C130, With Tween80) of 0.12 µg/mL, an MIC ([8]; strain C130, Without Tween80) of 0.5 µg/mL and an MIC ([8]; strain C132, With Tween80) of 0.12 µg/mL. For the same substance, the MIC ([8]; strain C132, Without Tween80) was 0.12 µg/mL, the MIC ([8]; strain Kp OmpK3 5-OmpK3 6-, With Tween80) was 0.12 µg/mL and the MIC ([8]; strain Kp OmpK3 5-OmpK3 6-, Without Tween80) was 0.12 µg/mL. It also gave an MIC ([8]; strain Sa, With Tween80) greater than 128 µg/mL, an MIC ([8]; strain Sa, Without Tween80) of 128 µg/mL and an MIC ([8]; strain T1b, With Tween80) of 128 µg/mL. It also gave an MIC ([8]; strain T1b, Without Tween80) of 128 µg/mL, an MIC ([8]; strain T4, With Tween80) of 64 µg/mL and an MIC ([8]; strain T4, Without Tween80) of 64 µg/mL. The MIC ([8]; strain T5, With Tween80) was 64 µg/mL, the MIC ([8]; strain T5, Without Tween80) was 32 µg/mL and the MIC ([9]; With Tween80) was 16 µg/mL. For the same substance, the MIC ([9]; Without Tween80) was 16 µg/mL, the MIC ([10]; strain 38A10, With Tween80) was 0.12 µg/mL and the MIC ([10]; strain 38A10, Without Tween80) was 0.12 µg/mL. The MIC ([10]; strain C28, With Tween80) was 32 µg/mL, the MIC ([10]; strain C28, Without Tween80) was 32 µg/mL and the MIC ([10]; strain C129, With Tween80) was 0.12 µg/mL. The MIC ([10]; strain C129, Without Tween80) was 0.12 µg/mL, the MIC ([10]; strain C144, With Tween80) was 0.12 µg/mL and the MIC ([10]; strain C144, Without Tween80) was 0.12 µg/mL. For the same substance, the MIC ([10]; strain HM, With Tween80) was greater than 128 µg/mL, the MIC ([10]; strain HM, Without Tween80) was greater than 128 µg/mL and the MIC ([11]; With Tween80) was 64 µg/mL. It also gave an MIC ([11]; Without Tween80) of 64 µg/mL, an MIC ([12]; strain 38B2, With Tween80) of 0.12 µg/mL and an MIC ([12]; strain 38B2, Without Tween80) of 0.12 µg/mL. For the same substance, the MIC ([12]; strain C136, With Tween80) was 0.12 µg/mL, the MIC ([12]; strain C136, Without Tween80) was 0.25 µg/mL and the MIC ([13]; With Tween80) was greater than 128 µg/mL. The MIC ([13]; Without Tween80) was greater than 128 µg/mL, the MIC ([14]; With Tween80) was greater than 128 µg/mL and the MIC ([14]; Without Tween80) was greater than 128 µg/mL.
